Measured values from patent publication US10000555B2, “Monomethylvaline compounds having phenylalanine side-chain modification at the C-terminus” (Seattle Genetics, Inc., priority 2005, dated 2018).

How the values were obtained:
Type in all cases: cell-based
Caki-1 = assay: In vitro cytotoxicity of h1F6-MC-val-cit-PAB-MMAZ conjugates on CD70+ cell line Caki-1; settings: Caki-1 renal cell carcinoma, approximately 4 drugs per antibody
Protocol: (§1) The cytotoxic activity of MMAZ and antibody-drug conjugates is evaluated on the CD70+ positive cell lines, for example, Caki-1, renal cell carcinoma; L428, Hodgkin's disease; U251, glioblastoma. To evaluate the cytotoxicity of compounds, cells can be seeded at approximately 5-10,000 per well in 150 μl of culture medium, then treated with graded doses of compounds in quadruplicates at the initiation of assay. Cytotoxicity assays are usually carried out for 96 hours after addition of test compounds. Fifty μl of resazurin dye may be added to each well during the last 4 to 6 hours of the incubation to assess viable cells at the end of culture. Dye reduction can be determined by fluorescence spectrometry using the excitation and emission wavelengths of 535 nm and 590 nm, respectively. For analysis, the extent of resazurin reduction by the treated cells can be compared to that of the untreated control cells.
(§2) To evaluate the cytotoxicity of conjugates, cells are seeded at approximately 5-10,000 per well in 150 μl of culture medium and then treated with graded doses of conjugates in quadruplicates at the initiation of assay. Cytotoxicity assays are carried out for 96 hours after addition of test compounds. Fifty μl of the resazurin dye is added to each well during the last 4 to 6 hours of the incubation to assess viable cells at the end of culture. Dye reduction is determined by fluorescence spectrometry using the excitation and emission wavelengths of 535 nm and 590 nm, respectively. For analysis, the extent of resazurin reduction by the treated cells is compared to that of the untreated control cells.

L428 = assay: In vitro cytotoxicity of h1F6-MC-val-cit-PAB-MMAZ conjugates on CD70+ cell line L428; settings: for IC50 (ng/mL) of h1F6-MC-val-cit-PAB-MMAZ conjugates on CD70+ cell lines, L428: L428 Hodgkin's disease, approximately 4 drugs per antibody
Protocol: as §1, §2

U251 = assay: In vitro cytotoxicity of h1F6-MC-val-cit-PAB-MMAZ conjugates on CD70+ cell line U251; settings: U251 glioblastoma, approximately 4 drugs per antibody
Protocol: as §1, §2

Substance	IC50 (ng/mL) of h1F6-MC-val-cit-PAB-MMAZ conjugates on CD70+ cell lines, Caki-1 (Caki-1)	IC50 (ng/mL) of h1F6-MC-val-cit-PAB-MMAZ conjugates on CD70+ cell lines, L428 (L428) [ng/mL]	IC50 (ng/mL) of h1F6-MC-val-cit-PAB-MMAZ conjugates on CD70+ cell lines, U251 (U251)	Maximum inhibition, L428 (L428; @ 141 ng/ml)	Maximum inhibition, L428 (L428; @ 1000 ng/ml)	Maximum inhibition, L428 (L428; @ 100 ng/ml)
Maleimidocaproyl-Val-Cit-PAB-MeVal-Val-Dil-Dap-2-Chloro-Phe-OH [SP3-a]	4.4 ng/mL	8	8 ng/mL	–	–	–
Maleimidocaproyl-Val-Cit-PAB-MeVal-Val-Dil-Dap-3-(3-pyridyl)-L-Ala-OH [SP3-h]	16 ng/mL	12	16 ng/mL	–	–	–
Maleimidocaproyl-Val-Cit-PAB-MeVal-Val-Dil-Dap-Glu(OtBu)-OH [SP3-l]	51 ng/mL	–	43 ng/mL	Maximum inhibition = 12% @ 141 ng/ml	–	–
Maleimidocaproyl-Val-Cit-PAB-MeVal-Val-Dil-Dap-L-β-homophe-OH [SP3-d]	9 ng/mL	33	11 ng/mL	–	–	–
Maleimidocaproyl-Val-Cit-PAB-MeVal-Val-Dil-Dap-Met-OH [SP3-j]	18 ng/mL	43	23 ng/mL	–	–	–
Maleimidocaproyl-Val-Cit-PAB-MeVal-Val-Dil-Dap-Tic-OH [SP3-c]	28 ng/mL	–	20 ng/mL	–	Maximum inhibition = 12% @ 1000 ng/ml	–
Maleimidocaproyl-Val-Cit-PAB-MeVal-Val-Dil-Dap-Trp(Boc)-OH [SP3-k]	6 ng/mL	11	7.5 ng/mL	–	–	–
Maleimidocaproyl-Val-Cit-PAB-MeVal-Val-Dil-Dap-p-Amino-Phe-OH [SP3-e]	No effect	–	No effect	–	–	Maximum inhibition = 10% @ 100 ng/ml
Maleimidocaproyl-Val-Cit-PAS-MeVal-Val-Dil-Dap-Me-Phe-OH [SP3-b]	6 ng/mL	6	8 ng/mL	–	–	–
